Tests used:
[1] = administration of D-BHB, D-BHV and D-1,3BD in various ratios to human subjects at rest: circulating ketones and ketotic efficiency; type: in vivo; conditions: for Max change in mMol/L (increase in circulating ketone level): 10 g dose, three human subjects at rest; for 1 hour ketotic efficiency: 1 hour post-administration; for 1 hour ketotic efficiency / 2 hours ketotic efficiency: subject at rest; for 2 hours ketotic efficiency: 2 hours post-administration; for prolonged rise of blood ketone levels / sustained ketonemia: based on measured plasma levels of FIG. 1, subject at rest; for ketotic efficiency, rank in words: both 1 and 2 hours post-administration
Experimental: The administration of examples presented herein result in an increase in the circulating level of ketones in a human subject at rest that is greater than would result from the administration of (D)-β-hydroxybutyrate or (D)-1,3 butanediol alone over a duration of, for example, 120 minutes. Preferred examples include administration of a combination of D-BHB, D-BHV, and D-1,3BD in a therapeutically effective amount such that the rate change of circulating ketones in the blood of a human subject at rest is faster than the administration of an equivalent amount of either D-BHB or D-1,3BD administered alone. In one example, this includes the administration of a composition including a mixture of 43.2%% D-BHB, 1.8% D-BHV and 55% D-1,3BD. In another example, this includes the administration of a composition including a mixture of 52.8% DBHB, 2.2% D-BHV, and 45% D-1,3BD. In another example, this includes the administration of at composition including a mixture of 62.4% D-BHB, 2.6% D-BHV, and 35% D-1,3BD.
Examples include using a composition including D-BHB, D-BHV, and D-1,3BD in a subject at rest. The ketotic efficiency represents the net elevation of circulating ketones a ketone supplement affects over time in an individual. Ketotic efficiency may be represented as:
[formula] where mMol/L is the concentration of circulating 3-hydroxybutyrate in the blood, g is the total dose of the combined D-BHB, D-BHV, and D-1,3,BD in grams, kg is the mass of the individual in kilograms, and t is an increment of time in minutes.
While this example pertains to a fasted subject at rest, the relative utility of blended vs pure constituents has also been observed in fed and active subjects.
As illustrated by the examples of FIG. 1, these exemplary compositions can advantageously elevate circulating ketones by approximately two times greater than other known compositions. Such a composition can sustain ketonemia for longer than either D-BHB or D-1,3BD can when ingested alone by a subject of a given weight as shown by the 100% line (i.e., contains D-BHB, but not D-1,3BD) and the 0% line (i.e., contains only D-1,3BD, but not D-BHB).
As shown in the following table, the increase in circulating ketone level with a 10 g dose in three human subjects at rest was maximal at between 45-55% D-BHB in the tested compositions. […]

[2] = similar to lemon juice; cited from earlier work

SMILES | Max change in mMol/L (increase in circulating ketone level) [1] | 1 hour ketotic efficiency [1] | 2 hours ketotic efficiency [1] | prolonged rise of blood ketone levels / sustained ketonemia [1] | ketotic efficiency, rank in words [1] | pH [2]
CC(O)CCO (centres unmarked) [0%, (D)-1,3 butanediol] | 0.8 mmol/L | 266 kg·mmol·min/g/L | 462 kg·mmol·min/g/L | does not cause a prolonged rise of blood ketone levels | lowest efficiency | 
CC(O)CC(=O)O (stereo not drawn) [100%, (D)-β-hydroxybutyric acid] | 0.9 mmol/L | 335 kg·mmol·min/g/L | 566 kg·mmol·min/g/L | A similar result | lowest efficiency | 2.5
